# Like-named read-outs stand apart in the source and are kept apart here.
# Legend:
# barnyardgrass = experiment: Test A pre-/postemergence herbicide test; type: in vivo, Echinochloa crus-galli; settings: Echinochloa crus-galli, 240 h; for pest or weed control at 500 g/ha: 500 g ai/ha; for pest or weed control at 2000 g/ha: 2000 g ai/ha
# Procedure, shortened: (§1)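 Plants are held in greenhouse about ten days after treatment, then compared with untreated controls and scored 0 (no effect) to 100 (complete control). Preemergence dosing is a directed soil spray on sown sandy loam; postemergence dosing is spray to runoff at 2–10 cm height.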
# morningglory [1] = experiment: Test A pre-/postemergence herbicide test; type: in vivo, Ipomoea spp.; settings: Ipomoea, 240 h; for pest or weed control at 500 g/ha: 500 g ai/ha; for pest or weed control at 2000 g/ha: 2000 g ai/ha
# Procedure, shortened: as §1
# redroot pigweed = experiment: Test A pre-/postemergence herbicide test; type: in vivo, Amaranthus retroflexus; settings: Amaranthus retroflexus, 240 h; for pest or weed control at 500 g/ha: 500 g ai/ha; for pest or weed control at 2000 g/ha: 2000 g ai/ha
# Procedure, shortened: as §1
# bermudagrass = experiment: Test C pre-/postemergence herbicide test; type: in vivo, Cynodon dactylon
# Procedure, shortened: (§2)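 Greenhouse-grown plants were evaluated visually 12 to 14 days after treatment, with 100 meaning complete control and 0 no effect. Application was preemergence, or postemergence at 2 to 18 cm.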
# large crabgrass = experiment: Test C pre-/postemergence herbicide test; type: in vivo, Digitaria sanguinalis
# Procedure, shortened: as §2
# giant foxtail = experiment: Test C pre-/postemergence herbicide test; type: in vivo, Setaria faberi
# Procedure, shortened: as §2
# lambsquarters = experiment: Test C pre-/postemergence herbicide test; type: in vivo, Chenopodium album
# Procedure, shortened: as §2
# morningglory [2] = experiment: Test C pre-/postemergence herbicide test; type: in vivo, Ipomoea coccinea
# Procedure, shortened: as §2
# common ragweed = experiment: Test C pre-/postemergence herbicide test; type: in vivo, Ambrosia elatior
# Procedure, shortened: as §2
# velvetleaf = experiment: Test C pre-/postemergence herbicide test; type: in vivo, Abutilon theophrasti
# Procedure, shortened: as §2
# rice = experiment: Test C flooded paddy test; type: in vivo, Oryza sativa; settings: Oryza sativa
# Procedure, shortened: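 Plants were grown to the 1- to 4-leaf stage (2–18 cm) and then treated postemergence, or grown to the 2-leaf stage for the flooded paddy test. They were held in a greenhouse for 12 to 14 days and then scored by eye against controls, where 0 is no effect and 100 is complete control.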
# [3] = tested on: smallflower umbrella sedge; experiment: Test C flooded paddy test; type: in vivo, Cyperus difformis; settings: Cyperus difformis
# [4] = post-emergence, Postemergence, 0 to 100 scale, 0 no effect, 100 complete control, read-out: Plant response rating, Barnyardgrass
# [5] = post-emergence, Postemergence, 0 to 100 scale, 0 no effect, 100 complete control, read-out: Plant response rating, Morningglory
# [6] = post-emergence, Postemergence, 0 to 100 scale, 0 no effect, 100 complete control, read-out: Plant response rating, Pigweed
# [7] = Preemergence, 500 g ai/ha, scale 0 to 100, 0 no effect, 100 complete control
compound,measurement,setting,value
"CCn1nc(C(C)(C)C)cc1C(=O)Nc1cccc2c1CN(C)C2=O [Compound 55, N-(2,3-dihydro-2-methyl-1-oxo-1H-isoindol-4-yl)-3-(1,1-dimethylethyl)-1-ethyl-1H-pyrazole-5-carboxamide]",pest or weed control at 500 g/ha,barnyardgrass; [4],90%
same,pest or weed control at 2000 g/ha,barnyardgrass; [4],100%
same,pest or weed control at 500 g/ha,"barnyardgrass; pre-emergence, Preemergence, visual rating, 0 to 100 scale (0 no effect, 100 complete control), read-out: Barnyardgrass plant response rating",80%
same,pest or weed control at 2000 g/ha,"barnyardgrass; pre-emergence, Preemergence, 0 to 100 scale, 0 no effect, 100 complete control, read-out: Barnyardgrass plant response rating",95%
same,pest or weed control at 500 g/ha,morningglory [1]; [5],20%
same,pest or weed control at 2000 g/ha,morningglory [1]; [5],25%
same,pest or weed control at 500 g/ha,"morningglory [1]; pre-emergence, Preemergence, visual rating, 0 to 100 scale (0 no effect, 100 complete control), read-out: Morningglory plant response rating",5%
same,pest or weed control at 2000 g/ha,"morningglory [1]; pre-emergence, Preemergence, 0 to 100 scale, 0 no effect, 100 complete control, read-out: Morningglory plant response rating",20%
same,pest or weed control at 500 g/ha,redroot pigweed; [6],90%
same,pest or weed control at 2000 g/ha,redroot pigweed; [6],100%
same,pest or weed control at 500 g/ha,"redroot pigweed; pre-emergence, Preemergence, visual rating, 0 to 100 scale (0 no effect, 100 complete control), read-out: Pigweed plant response rating",100%
same,pest or weed control at 2000 g/ha,"redroot pigweed; pre-emergence, Preemergence, 0 to 100 scale, 0 no effect, 100 complete control, read-out: Pigweed plant response rating",100%
same,"Plant response rating (0 = no effect, 100 = complete control), Bermudagrass","bermudagrass; 62 g ai/ha, preemergence",60
same,pest or weed control at 125 g/ha,"bermudagrass; Cynodon dactylon, pre-emergence, 312 h, 125 g ai/ha, scale 0 (no effect) to 100 (complete control), visual, 12 to 14 days, read-out: Plant response rating, Bermudagrass",100%
same,pest or weed control at 250 g/ha,"bermudagrass; Cynodon dactylon, pre-emergence, 312 h, 250 g ai/ha, scale 0 to 100 (0 no effect, 100 complete control), visual, 12 to 14 days, read-out: Plant response rating, Bermudagrass",100%
same,pest or weed control at 500 g/ha,"bermudagrass; Cynodon dactylon, pre-emergence, 312 h, Preemergence, 500 g ai/ha, scale 0 to 100, 0 no effect, 100 complete control, read-out: Bermudagrass plant response rating",100%
same,"Plant response rating (0 = no effect, 100 = complete control), Crabgrass, Large","large crabgrass; 62 g ai/ha, preemergence",15
same,pest or weed control at 125 g/ha,"large crabgrass; Digitaria sanguinalis, pre-emergence, 312 h, 125 g ai/ha, scale 0 (no effect) to 100 (complete control), visual, 12 to 14 days, read-out: Plant response rating, Crabgrass, Large",90%
same,pest or weed control at 250 g/ha,"large crabgrass; Digitaria sanguinalis, pre-emergence, 312 h, 250 g ai/ha, scale 0 to 100 (0 no effect, 100 complete control), visual, 12 to 14 days, read-out: Plant response rating, Crabgrass, Large",95%
same,"Crabgrass, Large plant response rating",large crabgrass; [7],100
same,"Plant response rating (0 = no effect, 100 = complete control), Foxtail, Giant","giant foxtail; 62 g ai/ha, preemergence",0
same,"Foxtail, Giant plant response rating",giant foxtail; [7],100
same,pest or weed control at 125 g/ha,"giant foxtail; Setaria faberi, pre-emergence, 312 h, 125 g ai/ha, scale 0 (no effect) to 100 (complete control), visual, 12 to 14 days, read-out: Plant response rating, Foxtail, Giant",50%
same,pest or weed control at 250 g/ha,"giant foxtail; Setaria faberi, pre-emergence, 312 h, 250 g ai/ha, scale 0 to 100 (0 no effect, 100 complete control), visual, 12 to 14 days, read-out: Plant response rating, Foxtail, Giant",75%
same,"Plant response rating (0 = no effect, 100 = complete control), Lambsquarters","lambsquarters; 62 g ai/ha, preemergence",80
same,pest or weed control at 125 g/ha,"lambsquarters; Chenopodium album, pre-emergence, 125 g ai/ha, scale 0 (no effect) to 100 (complete control), visual, 12 to 14 days, read-out: Plant response rating, Lambsquarters",95%
same,pest or weed control at 250 g/ha,"lambsquarters; Chenopodium album, pre-emergence, 250 g ai/ha, scale 0 to 100 (0 no effect, 100 complete control), visual, 12 to 14 days, read-out: Plant response rating, Lambsquarters",100%
same,Lambsquarters plant response rating,lambsquarters; [7],100
same,"Plant response rating (0 = no effect, 100 = complete control), Morningglory","morningglory [2]; 62 g ai/ha, preemergence",0
same,pest or weed control at 125 g/ha,"morningglory [2]; Ipomoea, pre-emergence, 125 g ai/ha, scale 0 (no effect) to 100 (complete control), visual, 12 to 14 days, read-out: Plant response rating, Morningglory",0%
same,pest or weed control at 250 g/ha,"morningglory [2]; Ipomoea, pre-emergence, 250 g ai/ha, scale 0 to 100 (0 no effect, 100 complete control), visual, 12 to 14 days, read-out: Plant response rating, Morningglory",20%
same,Morningglory plant response rating,morningglory [2]; [7],75
same,"Plant response rating (0 = no effect, 100 = complete control), Ragweed","common ragweed; 62 g ai/ha, preemergence",0
same,pest or weed control at 125 g/ha,"common ragweed; Ambrosia artemisiifolia, pre-emergence, 125 g ai/ha, scale 0 (no effect) to 100 (complete control), visual, 12 to 14 days, read-out: Plant response rating, Ragweed",0%
same,pest or weed control at 250 g/ha,"common ragweed; Ambrosia artemisiifolia, pre-emergence, 250 g ai/ha, scale 0 to 100 (0 no effect, 100 complete control), visual, 12 to 14 days, read-out: Plant response rating, Ragweed",0%
same,Ragweed plant response rating,common ragweed; [7],80
same,"Plant response rating (0 = no effect, 100 = complete control), Velvetleaf","velvetleaf; 62 g ai/ha, preemergence",0
same,pest or weed control at 125 g/ha,"velvetleaf; Abutilon theophrasti, pre-emergence, 125 g ai/ha, scale 0 (no effect) to 100 (complete control), visual, 12 to 14 days, read-out: Plant response rating, Velvetleaf",0%
same,pest or weed control at 250 g/ha,"velvetleaf; Abutilon theophrasti, pre-emergence, 250 g ai/ha, scale 0 to 100 (0 no effect, 100 complete control), visual, 12 to 14 days, read-out: Plant response rating, Velvetleaf",15%
same,Velvetleaf plant response rating,velvetleaf; [7],100
same,plant injury at 62 g/ha,"rice; 62 g ai/ha, scale 0 to 100 (0 no effect, 100 complete control), read-out: Rice plant response rating",0%
same,plant injury at 125 g/ha,"rice; 125 g ai/ha, scale of 0 to 100, 0 is no effect, 100 is complete control, read-out: Rice plant response rating",0%
same,plant injury at 250 g/ha,"rice; 250 g ai/ha, scale of 0 to 100, 0 is no effect, 100 is complete control, read-out: Rice plant response rating",15%
same,plant injury at 500 g/ha,"rice; 500 g ai/ha, visual rating after 12 to 14 days, scale 0 to 100 (0 no effect, 100 complete control), read-out: Plant response rating, Rice",60%
same,pest or weed control at 62 g/ha,"[3]; 62 g ai/ha, scale 0 to 100 (0 no effect, 100 complete control), read-out: Sedge, Umbrella plant response rating",0%
same,pest or weed control at 125 g/ha,"[3]; 125 g ai/ha, scale of 0 to 100, 0 is no effect, 100 is complete control, read-out: Sedge, Umbrella plant response rating",20%
same,pest or weed control at 250 g/ha,"[3]; 250 g ai/ha, scale of 0 to 100, 0 is no effect, 100 is complete control, read-out: Sedge, Umbrella plant response rating",75%
same,pest or weed control at 500 g/ha,"[3]; 500 g ai/ha, visual rating after 12 to 14 days, scale 0 to 100 (0 no effect, 100 complete control), read-out: Plant response rating, Sedge, Umbrella",80%

# From patent US20060069132A1, “Azolecarboxamide herbicides” (priority 2004, published 2006)
